Data from EP0411111B1, “AMMONIUM COMPOUND, COMPOSITION CONTAINING IT AND DESINFECTION METHOD” (FABRICOM AIR CONDITIONING S.A., priority 1989, dated 1990).

Tests used:
[1] = system: Chrysosporium Keratinophilium; test: fungicidal test on fungal strains found around pools; type: cell-based; settings: in 24 heures; dissolved in water at a concentration below 50 ppm with 30 ppm Cu and 100 ppb Ag
Trichophyton rubrum = test: as above; type: cell-based; settings: in 24 heures; dissolved in water at a concentration below 50 ppm with 30 ppm Cu and 100 ppb Ag

CCCCCCCCCCCCCCCC[N+](C)(C)CCCCCC[N+](C)(C)c1ccc(NC(=N)NC(=N)Nc2ccc([N+](C)(C)CCCCCC[N+](C)(C)CCCCCCCCCCCCCCCC)cc2)cc1 [exemple 30]
action fongicide [1]: action fongicide
action fongicide (Trichophyton rubrum): action fongicide
